Measurements from PMC10711165, “DNA conformational dynamics in the context-dependent non-CG CHH methylation by plant methyltransferase DRM2” (The Journal of Biological Chemistry, 2023).

Target: T1, DRM2 MTase domain (DOMAINS REARRANGED METHYLTRANSFERASE 2) (Arabidopsis thaliana, UniProt Q9M548)
T1 construct: MTase domain, residues 270-626, His6-SUMO tag cleaved by ULP1, expressed in E. coli BL21 DE3 (RIL); residues 275-626 traced in crystal
T1 sequence (Q9M548 270-626): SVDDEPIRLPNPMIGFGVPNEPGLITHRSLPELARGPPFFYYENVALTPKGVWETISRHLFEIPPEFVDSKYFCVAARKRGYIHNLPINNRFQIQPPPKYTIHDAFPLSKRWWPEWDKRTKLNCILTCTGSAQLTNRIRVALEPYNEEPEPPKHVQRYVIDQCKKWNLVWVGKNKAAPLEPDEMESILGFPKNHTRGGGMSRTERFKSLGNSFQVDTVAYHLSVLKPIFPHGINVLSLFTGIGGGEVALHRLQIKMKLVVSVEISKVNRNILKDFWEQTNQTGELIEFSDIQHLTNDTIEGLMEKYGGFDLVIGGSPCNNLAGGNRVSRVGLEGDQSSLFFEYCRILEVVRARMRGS
Assay: X-ray crystallography, […] A
Format: binding
Conditions: covalent complex of protein C587 with 18-mer 5-fluorocytosine CTA DNA duplex; SAH at the cofactor site; crystals at 4 °C, 1 mM SAH

Nc1ncnc2c1ncn2[C@@H]1O[C@H](CSCC[C@H](N)C(=O)O)[C@@H](O)[C@H]1O [S-adenosyl-homocysteine]
X-ray crystallography, 2.91 A: The crystal structure of the DRM2-CTA complex bound to cofactor by-product S-adenosyl-homocysteine (SAH)
